# In patent publication US5475029A, “Farnesyl compounds as cholesterol lowering agents” (The Board of Trustees of the Leland Stanford Junior …, priority 1993, dated 1995):
# Assays:
# Assay type in all cases: cell-based
# HMGal [1] = assay: HMGal activity (in vitro β-galactosidase specific activity) in CHO-HMGal cells
# Protocol: Cell Culture--All cells were grown as monolayers at 37° C. in an atmosphere of 5% CO2. CHO-HMGal cells were grown in minimal essential medium (MEM) supplemented with 0.25 mg/ml active geneticin and either 5% fetal calf serum (FCS) or 5% lipid-poor fetal calf serum (LPS).
# Stock Solutions--Stock solutions of farnesyl acetate, ethyl farnesyl ether, and the mixture of 25-hydroxycholesterol with cholesterol were all made in 100% ethanol at 100 times the final concentration. In all experiments in which these compounds were used, there is a final concentration of 1% ethanol in the medium. For control, cells grown with "no additives" or "mevalonate" 100% ethanol was added to the medium to bring the final concentration of ethanol to 1%. The mevalonate stock solution was prepared at a concentration of 2M in 20 mM potassium phosphate buffer (pH 4.5).
# (§1) β-galactosidase Specific Activity--In vitro β-galactosidase activity was measured using the substrate, o-nitrophenyl-β-D-galactopyranoside. Specific activities were calculated using protein concentration values.
# Farnesyl acetate and ethyl farnesyl ether stimulate a reduction in HMGal activity--In an attempt to identify tile non-sterol metabolite(s) that triggers the down regulation of HMG-CoA reductase, five commercially available isoprenoid compounds were tested for their effects on HMGal activity in CHO-HMGal cells. Each of tile compounds tested closely resembled one of tile naturally occurring isoprenoid pyrophosphates, except that the pyrophosphate group had been replaced by either a hydroxyl or an […] group. The compounds tested included: 3-methyl-2-buten-1-ol, the alcohol of the five carbon isoprenoid-dimethylallyl pyrophosphate (a naturally occurring isomer of isopentenyl pyrophosphate); geraniol and geranyl acetate, the alcohol and the […] of the ten carbon isoprenoid-geranyl pyrophosphate; and farnesol and farnesyl acetate, the alcohol and the […] of the fifteen carbon isoprenoid-farnesyl pyrophosphate.
# (§2) To confirm that the reduction in HMGal activity was the result of a regulatory function specifically targeting the membrane domain of HMGal, the effects of farnesyl acetate on β-galactosidase activity were measured in vitro for both CHO-HMGal cells and CHO-Gal cells. The CHO-Gal cells had been stably transfected with a construct identical to the HMGal construct (using the same vector, promoter, and 5' and 3' flanking regions) except that the construct in the CHO-Gal cells codes for a soluble β-galactosidase protein instead of the HMGal fusion protein with the membrane domain of HMG-CoA reductase. In this experiment, the CHO-Gal cells served to control for any artifacts farnesyl acetate might cause in the β-galactosidase assay or any nonspecific effects farnesyl acetate might have on the rates of protein synthesis or degradation.
# β-galactosidase = β-galactosidase activity in CHO-Gal control cells
# Protocol: as §1, §2
# HMGal [2] = assay: HMGal synthesis rate ([35S]methionine incorporation); details: 10 μg/ml
# Protocol: (§3) Measurement of HMGal and HMG-CoA Reductase Synthesis Rates Cells plated into 60×15 mm dishes were grown in 5% LPS MEM with 0.25 mg/ml active geneticin for 24 hours. These cells were washed with PBS and grown for 24 hours in 5% LPS MEM supplemented with 0.25 mg/ml active geneticin, 10 μM compactin and 0.1 mM mevalonate. After 24 hours, the medium was removed, the cells were washed with PBS and the medium was replaced with methionine-free MEM supplemented with 5% LPS, 250 μg/ml of active geneticin, 10 μM compactin, and 0.1 mM mevalonate. In addition, 20 mM mevalonate or 10 μg/ml farnesyl acetate was included in those plates previously treated with these compounds. […] Cells were washed, lysed and the HMGal and HMG-CoA reductase proteins were immunoprecipitated, subjected to SDS-PAGE and quantified. […]
# (§4) Farnesyl compounds reduce translation and stimulate degradation of HMG-CoA reductase and HMGal A reduction in HMGal specific activity triggered by the farnesyl compounds could have been the result of a decrease in HMGal synthesis, an increase in HMGal degradation, or a combination of changes in both the synthesis and degradation rates. In order to test whether the farnesyl compounds impact synthesis, the rates of HMGal, HMG-CoA reductase, and total cellular protein synthesis were measured by [^35 S]methionine incorporation in the presence and absence of 10 μg/ml farnesyl acetate.
# total cellular protein [3] = assay: Total cellular protein synthesis (TCA-precipitable counts); details: 10 μg/ml
# Protocol: as §3, §4
# HMGal [4] = assay: HMGal degradation rate (pulse-chase); details: 10 μg/ml during chase; untreated 6.4 hours
# Protocol: (§5) Measurement of HMGal and HMG-CoA Reductase Degradation Rates Cells grown in 60×15 mm dishes were washed once with ice-cold PBS and starved for 1 hour in 1 ml of methionine-free MEM supplemented with 5% LPS, 250 μg/ml of active geneticin, 10 μM compactin, and 0.1 mM mevalonate. These cells were radio-labeled for 2 hours in 300 μl of the methionine-free starvation medium containing 100 μCi of Tran^35 S-label (>1,000 Ci/mmol). Cells were incubated in an MEM-based chase medium containing 2 mM methionine, 5% LPS, 250 μg/ml of active geneticin, 10 μM compactin, and 0.1 mM mevalonate. During the chase period, some plates also had either 20 mM mevalonate, 10 μg/ml farnesyl acetate or 10 μg/ml ethyl farnesyl ether added to them as indicated in the figure legend. Following the chase, cells were washed, lysed and the HMGal and HMG-CoA reductase proteins were immunoprecipitated, subjected to SDS-PAGE and quantified.
# (§6) In order to test whether the farnesyl compounds impact degradation, the rates of degradation for HMGal, HMG-CoA reductase, and total cellular protein were measured in the presence and absence of 10 μg/ml farnesyl acetate and ethyl farnesyl ether.
# total cellular protein [5] = assay: Total cellular protein degradation; details: 10 μg/ml
# Protocol: as §5, §6
# cholesterol biosynthesis = assay: [3H]acetate incorporation into cholesterol in CHO-HMGal cells
# Protocol: Thin Layer Chromatography--TLC was performed using Analtech 250 μm silica gel G plates with a hexanes/diethyl ether (1:1) solvent system. Lipid standards were visualized by iodine staining. Bands were scraped from the plate and their radioactivity was measured.
# Quantification of Radioactivity--Samples were suspended in 4 ml of scintillation fluid (Cytoscint from ICN). The radioactivity of the samples was measured using a Beckman LS-7500 scintillation counter.
# Subsequently, the cells were labeled for 1,2, and 4 hours with [^3 H]acetate and harvested. The non-saponifiable lipid fraction from each cell type was extracted and separated by TLC. The radioactivity that co-migrated with cholesterol was measured and normalized for the amount of cellular protein.
# Farnesyl acetate and ethyl farnesyl ether were only present during the labeling period so that any reduction in incorporation into cholesterol would be the result of inhibition and not a down regulation in HMG-CoA reductase.
structure (smiles),measurement,setting,value
CC(=O)OCC=C(C)CCC=C(C)CCC=C(C)C [farnesyl acetate],reduction of HMGal activity,"HMGal [1]; 10 μg/ml, 24 hour treatment",70%
same,reduction of HMGal activity,HMGal [1]; 20 μg/ml,80%
same,reduction in HMGal activity at concentrations below the levels toxic to the cells,HMGal [1]; five isoprenoid compounds tested,stimulated a reduction in HMGal activity
same,change of β-galactosidase activity of CHO-Gal cells,β-galactosidase; 10 μg/ml,not changed significantly
same,change of β-galactosidase activity of CHO-Gal cells,β-galactosidase; 20 μg/ml,essentially unchanged
same,reduction in the rate of HMGal synthesis,HMGal [2],80%
same,effect on total protein synthesis (TCA-precipitable counts),total cellular protein [3],Neither farnesyl acetate nor mevalonate have a significant effect
same,half-life of HMGal,HMGal [4],3.9 h
same,reduction of the half-life of HMGal,HMGal [4],40%
same,effect on the degradation of total cellular protein,total cellular protein [5],Neither farnesyl compound had a significant effect
same,reduction in [3H]acetate incorporation into cholesterol,"cholesterol biosynthesis; 24 hours pretreatment, then labeled 1, 2 and 4 hours, CHO-HMGal cells",80%
same,reduction in [3H]acetate incorporation into cholesterol,"cholesterol biosynthesis; compound present only during the labeling period, no pretreatment",89%
